Legend:
Assay type in all cases: cell-based
[1] = tested on: P. aeruginosa strain PAO1; assay: Biofilm prevention screen (96-well microplate, crystal violet); settings: Pseudomonas aeruginosa, positive = prevention, negative = enhancement of biofilm formation, quadruplicate, read-out: average percentage reduction of biofilm formed relative to DMSO controls
Experimental: (§1) Overnight cultures of 3 mL are made of P. aeruginosa strain PAO1 (grown in R2A medium (Handbook of Microbiological Media; CRC Press, 1997, second edition, R. M. Atlas, ed.), modified to omit Mg^2+ but to include 0.3–0.5% fructose (pH 7.0) and 3 μM ferrous ammonium sulfate), P. fluorescens strain ATCC 13525 (grown in R2A modified to omit Mg^2+ but to include 0.3–0.5% sodium pyruvate (pH 7.0)), S. epidermidis strain ATCC 35984 (grown in a ¼ dilution of TSB (Handbook of Microbiological Media; CRC Press, 1997, second edition, R. M. Atlas, ed.) supplemented with 1% fructose (pH 7.0) and 3 μM ferrous ammonium sulfate). To each type of growth medium, HEPES (pH 7.3) is optionally added to a final concentration of 10 mM.
(§2) To PS, PVC, or PP (preferably PP or PVC) round-bottom, 96-well microplates containing 100 μl per well of the respective growth medium as described above, compounds to be tested (dissolved in DMSO) are added and mixed, to give a final concentration of 250–500 μM. These microplates then also are used to make successive dilutions of the compounds in the same respective growth medium to yield microplates containing final concentrations of, for example, 160 μM and 32 μM of the same set of compounds. Control wells are included in the dilution series that contain only DMSO. From the 3 ml overnight cultures, each of the three dilution plate sets is inoculated with 5 μl per well of a 1:1 dilution in the same liquid growth media of the appropriate culture. The covered plate is then incubated with shaking, at 30° C. (for P. aeruginosa or P. fluorescens) or 37° C. (for S. epidermidis), at 200 rpm, for 16–26 hours, in a humidity controlled environment.
(§3) Cells present in biofilm attached to the microplate surface are stained with CV either after removal of the liquid from each well, followed by rinsing three times (aspiration and addition) with 150 μl per well phosphate buffered saline solution (PBS) and final addition of 100 μl per well of PBS, or by direct addition of stain to bacterial cultures without rinsing. To 100 μl per well of PBS or of bacterial culture, 25 μl/well of 1% CV solution (in ˜10% ethanol) is added. After incubation at room temperature for 45 minutes, the dye solution is removed from the plates. Residual dye is immediately removed by gentle rinsing with a stream of deionized water by filling and inverting the plates 4–5 times, or by using an automated pipettor. Rinsed plates are air-dried at room temperature for 0.5–2 hours. Bound dye is extracted by the addition of 150 μL per well of 95% ethanol, followed by vigorous mixing for 10–15 seconds and incubation for 45 minutes at room temperature without shaking. Subsequently, either undiluted or diluted (in ethanol) samples of extracted CV are transferred to flat bottom, polystyrene microtiter plates and absorbances at 586 nm were measured in a microplate reader. Readings from wells containing compounds are compared to the average of data from control wells that contain only DMSO. Replicate samples are measured, and results are reported as averages of the replicate well data points.
(§4) Data are expressed in terms of the average percentage reduction of biofilm formed in the presence of each compound, relative to the DMSO controls, for quadruplicate samples. Assays are run using the three compound concentrations indicated. Positive numbers indicate prevention of biofilm formation by a compound, and negative numbers indicate enhancement of biofilm formation by a compound (percentage coefficients of variation are ≦10%).

[2] = tested on: P. fluorescens strain ATCC 13525; assay: as above; settings: Pseudomonas fluorescens, positive = prevention, negative = enhancement of biofilm formation, quadruplicate, read-out: average percentage reduction of biofilm formed relative to DMSO controls; for inhibition at 32 µM: ATCC13525, 32 μM; for inhibition at 160 µM: ATCC13525, 160 μM; for inhibition at 390 µM: ATCC13525, 390 μM
Experimental: as §1, §2, §3, §4

[3] = tested on: S. epidermidis strain ATCC 35984; assay: as above; settings: Staphylococcus epidermidis, positive = prevention, negative = enhancement of biofilm formation, quadruplicate, read-out: average percentage reduction of biofilm formed relative to DMSO controls; for inhibition at 32 µM: ATCC35984, 32 μM; for inhibition at 160 µM: ATCC35984, 160 μM; for inhibition at 390 µM: ATCC35984, 390 μM
Experimental: as §1, §2, §3, §4

[4] = tested on: P. aeruginosa strain PAO1; assay: Improved biofilm dispersion screen (already-formed biofilms, crystal violet); settings: Pseudomonas aeruginosa, 30 mM NaOH step, positive = dispersion, negative = enhancement of pre-existing biofilm, quadruplicate, read-out: average percentage reduction of biofilm relative to the two control values (dispersion)
Experimental: (§5) A modification of method disclosed in Reference Example 2, which greatly improves the sensitivity and reproducibility of the dispersion screen is hereby disclosed. […] In the modification described herein, compounds are added in the presence of the fresh liquid growth media, such that the resultant biofilms continue to grow, unless a test compound triggers their dispersion. Overnight cultures are made as above, and 100 μL of the appropriate liquid growth media are dispensed into duplicate 96 well microplates—in this fashion, two identical microplates are set up for each bacterial species to be assayed. Neither compounds nor DMSO are added prior to the inoculation of bacteria, and growth in the duplicate plates for 24 hours is allowed using the conditions specified in Reference Example 1. After growth of biofilm to be tested in the wells, cells present in biofilm attached to one of the duplicate microplates is stained with CV, quantitated as described in Reference Example 1, and the data for the entire plate averaged, resulting in a growth control value, t0. The remaining replicate of each microplate pairs is treated with compounds in DMSO, or DMSO alone for control wells, by first removing the cell suspensions from the wells, then adding fresh 100 μL volumes of the same appropriate liquid growth media, followed by direct addition and mixing of the compound DMSO solutions to give final compound concentrations of 390 μM. Incubation of the compound-containing microplates is then continued for an additional 22–26 hours using the same conditions described in Reference Example 1. Cell suspensions are then removed, 100 μL per well of a 0 mM NaOH (S. epidermidis), 20 mM NaOH (P. fluorescens), or 30 mM NaOH (P. aeruginosa) solution in PBS is added, and incubation at room temperature is allowed for 30 minutes. No addition of NaOH is made to the S. epidermidis suspension since a test assay indicated no amplification by base with S. epidermidis. The microplates are subsequently rinsed three times with 150 μL per well of PBS, followed by final liquid removal, staining with CV and quantitation as described in Reference Example 1. Data for each well that contained compound result in a compound value, R, and data for control wells that contained DMSO only are averaged to generate a second control value, t24. The effect of each compound tested on dispersion of the biofilm compared to the two control values is calculated thus: [formula] […] Data are expressed in terms of the average percentage reduction of biofilm formed in the presence of each compound, relative to the two control values, for quadruplicate samples. Assays are run as described above, using compound concentrations of 390 μM. Positive numbers indicate dispersion (reduction) of pre-existing biofilms by a compound, and negative numbers indicate enhancement (stimulation of growth) of pre-existing biofilms by a compound (percentage coefficients of variation are ≦15%).

[5] = tested on: P. fluorescens strain ATCC 13525; assay: as above; settings: Pseudomonas fluorescens, ATCC13525, 20 mM NaOH step, positive = dispersion, negative = enhancement of pre-existing biofilm, quadruplicate, read-out: average percentage reduction of biofilm relative to the two control values (dispersion)
Experimental: as §5

[6] = tested on: S. epidermidis strain ATCC 35984; assay: as above; settings: Staphylococcus epidermidis, ATCC35984, no NaOH, positive = dispersion, negative = enhancement of pre-existing biofilm, quadruplicate, read-out: average percentage reduction of biofilm relative to the two control values (dispersion)
Experimental: as §5

CCCCCCCCNC(=O)[C@H]1CCCCN1 [Compound 23, (R)-(+)-2-piperidinecarboxylic acid n-octyl amide]
inhibition at 32 µM [1]: -5%
inhibition at 160 µM [1]: -31%
inhibition at 390 µM [1]: -3%
inhibition at 32 µM [2]: -23%
inhibition at 160 µM [2]: -13%
inhibition at 390 µM [2]: 21%
inhibition at 32 µM [3]: -1%
inhibition at 160 µM [3]: 15%
inhibition at 390 µM [3]: -36%
inhibition at 390 µM [4]: 0%
inhibition at 390 µM [5]: 26%
inhibition at 390 µM [6]: 0%

CC(C)(C)OC(=O)N1CCC[C@@H]1C(=O)NCCCCCCCCCCCCNC(=O)[C@H]1CCCN1C(=O)OC(C)(C)C [Compound 225, N-(tert-Butoxycarbonyl)-D-proline 1,12-diaminododecane bisamide]
inhibition at 32 µM [1]: 11%
inhibition at 160 µM [1]: 7%
inhibition at 390 µM [1]: -8%
inhibition at 32 µM [2]: 14%
inhibition at 160 µM [2]: 0%
inhibition at 390 µM [2]: -14%
inhibition at 32 µM [3]: -21%
inhibition at 160 µM [3]: -24%
inhibition at 390 µM [3]: -39%
inhibition at 390 µM [4]: -23%
inhibition at 390 µM [5]: -85%
inhibition at 390 µM [6]: 0%

CCCCCCCCCCCCNC(=O)[C@@H]1CCN1 [Compound 290]
inhibition at 32 µM [1]: 6%
inhibition at 160 µM [1]: -16%
inhibition at 390 µM [1]: 37%
inhibition at 32 µM [2]: -12%
inhibition at 160 µM [2]: 98%
inhibition at 390 µM [2]: 93%
inhibition at 32 µM [3]: 101%
inhibition at 160 µM [3]: 100%
inhibition at 390 µM [3]: 97%
inhibition at 390 µM [4]: -72%
inhibition at 390 µM [5]: 21%
inhibition at 390 µM [6]: 82%

CCCCCCCCNC(=O)C1CCCN1C(C)=O (stereo not drawn) [Compound 8]
inhibition at 32 µM [1]: -9%
inhibition at 160 µM [1]: -11%
inhibition at 390 µM [1]: -9%
inhibition at 32 µM [2]: -12%
inhibition at 160 µM [2]: -26%
inhibition at 390 µM [2]: -24%
inhibition at 32 µM [3]: -13%
inhibition at 160 µM [3]: -22%
inhibition at 390 µM [3]: -32%
inhibition at 390 µM [4]: -30%
inhibition at 390 µM [5]: -1%
inhibition at 390 µM [6]: 0%

CCCCCCCCNC(=O)[C@@H]1CCN1C(=O)OC(C)(C)C [Compound 284]
inhibition at 32 µM [1]: 2%
inhibition at 160 µM [1]: -10%
inhibition at 390 µM [1]: -12%
inhibition at 32 µM [2]: 4%
inhibition at 160 µM [2]: 21%
inhibition at 390 µM [2]: -2%
inhibition at 32 µM [3]: -4%
inhibition at 160 µM [3]: -33%
inhibition at 390 µM [3]: 56%
inhibition at 390 µM [4]: -79%
inhibition at 390 µM [5]: -15%
inhibition at 390 µM [6]: 0%

CCCCCCCCCCNC(=O)[C@@H]1CCN1C(=O)OC(C)(C)C [Compound 285, N-(tert-Butoxycarbonyl)-(S)-(−)-2-azetidinecarboxylic acid n-decyl amide]
inhibition at 32 µM [1]: 7%
inhibition at 160 µM [1]: -20%
inhibition at 390 µM [1]: -21%
inhibition at 32 µM [2]: -12%
inhibition at 160 µM [2]: -44%
inhibition at 390 µM [2]: -32%
inhibition at 32 µM [3]: 2%
inhibition at 160 µM [3]: 17%
inhibition at 390 µM [3]: 66%
inhibition at 390 µM [4]: -37%
inhibition at 390 µM [5]: -74%
inhibition at 390 µM [6]: 0%

CCCCCCNC(=O)[C@@H]1CCCN1C(=O)OC(C)(C)C [Compound 10]
inhibition at 32 µM [1]: -7%
inhibition at 160 µM [1]: -16%
inhibition at 390 µM [1]: -16%
inhibition at 32 µM [2]: -1%
inhibition at 160 µM [2]: -5%
inhibition at 390 µM [2]: -6%
inhibition at 32 µM [3]: -18%
inhibition at 160 µM [3]: -17%
inhibition at 390 µM [3]: -25%
inhibition at 390 µM [4]: -9%
inhibition at 390 µM [5]: -2%
inhibition at 390 µM [6]: -6%

CCCCCCCCCCCCNC(=O)[C@H]1CCCN1C(=O)OC(C)(C)C [Compound 159]
inhibition at 32 µM [1]: -9%
inhibition at 160 µM [1]: -38%
inhibition at 390 µM [1]: -50%
inhibition at 32 µM [2]: -1%
inhibition at 160 µM [2]: -3%
inhibition at 390 µM [2]: -13%
inhibition at 32 µM [3]: -9%
inhibition at 160 µM [3]: -20%
inhibition at 390 µM [3]: -3%
inhibition at 390 µM [4]: -55%
inhibition at 390 µM [5]: -94%
inhibition at 390 µM [6]: 0%

CCCCCCCCCCCCNC(=O)[C@@H]1CCCN1C(=O)OC(C)(C)C [Compound 160]
inhibition at 32 µM [1]: -2%
inhibition at 160 µM [1]: -44%
inhibition at 390 µM [1]: -59%
inhibition at 32 µM [2]: -1%
inhibition at 160 µM [2]: 0%
inhibition at 390 µM [2]: -18%
inhibition at 32 µM [3]: -9%
inhibition at 160 µM [3]: 20%
inhibition at 390 µM [3]: 29%
inhibition at 390 µM [4]: -52%
inhibition at 390 µM [5]: -44%
inhibition at 390 µM [6]: 0%

— patent US7018642B2 (The Procter & Gamble Company, priority 2001, dated 2006)
